According to PubChem BioAssay (NCI):
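Results reflect a 48-hour exposure of cells in 96-well plates to compound at five concentrations. At the GI50, growth is halved. At the TGI there is no net growth.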

Columns and labels:
Assay in all cases: NCI-60 cell line screen, 48 h
[1] = tested on: MCF7 breast
[2] = tested on: SN12C renal
[3] = tested on: SK-OV-3 ovarian
[4] = tested on: CAKI-1 renal
[5] = tested on: HCT-15 colon
[6] = tested on: MDA-MB-231 breast
[7] = tested on: HS 578T breast
[8] = tested on: KM12 colon
[9] = tested on: SK-MEL-2 melanoma
[10] = tested on: UACC-62 melanoma

| Compound | TGI [1] | TGI [2] | TGI [3] | TGI [4] | TGI [5] | TGI [6] | TGI [7] | TGI [8] | TGI [9] | TGI [10] | GI50 [1] | GI50 [2] | GI50 [3] | GI50 [4] | GI50 [5] | GI50 [6] | GI50 [7] | GI50 [8] | GI50 [9] | GI50 [10] |
| --- | --- | --- | --- | --- | --- | --- | --- | --- | --- | --- | --- | --- | --- | --- | --- | --- | --- | --- | --- | --- |
| CNC(c1ccncc1)C(NC)c1ccncc1 (stereo not given) | > 100 µM | > 100 µM | > 100 µM | > 100 µM | > 100 µM | > 100 µM | > 100 µM | > 100 µM | > 100 µM | > 100 µM | – | – | – | – | – | – | – | – | – | – |
| Cc1ccc(S(=O)(=O)NC(CO)C(=O)O)cc1 (stereo not given) | > 100 µM | > 100 µM | > 100 µM | > 100 µM | > 100 µM | > 100 µM | > 100 µM | > 100 µM | > 100 µM | > 100 µM | – | – | – | – | – | – | – | – | – | – |
| O=Cc1ccc(N2CCN(c3ccc(C=O)cc3)CC2)cc1 | > 100 µM | > 100 µM | > 100 µM | 76.5 µM | > 100 µM | > 100 µM | > 100 µM | > 100 µM | > 100 µM | > 100 µM | 97.7 µM | > 100 µM | > 100 µM | 10.8 µM | > 100 µM | > 100 µM | > 100 µM | > 100 µM | > 100 µM | 9.36 µM |
| Cc1c(Cl)cccc1NC(=O)c1sc2nc3c(cc2c1N)CCCC3 | > 100 µM | > 100 µM | > 100 µM | > 100 µM | > 100 µM | > 100 µM | > 100 µM | > 100 µM | > 100 µM | > 100 µM | 0.274 µM | 5.88 µM | 0.444 µM | 1.01 µM | 0.392 µM | > 100 µM | 1.05 µM | 0.482 µM | 0.46 µM | 0.6 µM |
| O=C1/C(=C\c2ccccc2)C2OCC=C3CN4CCC56c7ccccc7N1C5C2C3CC46 (stereo not given) | > 100 µM | > 100 µM | > 100 µM | 32.1 µM | > 100 µM | > 100 µM | > 100 µM | > 100 µM | 18.4 µM | 4.06 µM | 5.2 µM | 26.2 µM | > 100 µM | 2.18 µM | 7.77 µM | 6.92 µM | 62.5 µM | 34.4 µM | 3.78 µM | 1.83 µM |
| O=C(O)CCc1nc(-c2ccccc2-n2cccc2)no1 | > 100 µM | > 100 µM | > 100 µM | > 100 µM | > 100 µM | > 100 µM | > 100 µM | > 100 µM | > 100 µM | > 100 µM | – | – | – | – | – | – | – | – | – | – |
